ChEMBL document CHEMBL5532634, “Oxazolidinone: A promising scaffold for the development of antibacterial drugs” (Eur J Med Chem, 2023)
In brackets after ≈: the same amount, converted by molar mass.

Test system: Mycobacterium tuberculosis
Assay: Antimycobacterial activity against multi-drug resistant Mycobacterium tuberculosis assessed as reduction in bacterial growth
Type: functional

Question: Which MIC does the source give for `CC(=O)NC[C@H]1CN(c2ccc(N3CCSCC3)c(F)c2)C(=O)O1` [SUTEZOLID] here?
Answer: 0.2 µg/mL (≈ 0.566 µM)
